Measured values as given in patent US4224329A, “2-Substitute d-trans-5-aryl-2,3,4,4a,5,9b-hexahydro-1H-pyrido[4,3-b]indoles” (Pfizer Inc., priority 1979, dated 1980).
Where a name gives a salt, the structure may show the parent alone. Read-outs that look alike come from different tables or passages of the source.

Tested on: Amphetamine Stereotypy
Assay: Antagonism of Amphetamine Stereotypy in Rats (ED50 for blocking characteristic amphetamine cage movement)
Format: in vivo
Details: Rattus norvegicus
Method: The effects of the compounds of the present invention on prominent amphetamine-induced symptoms were studied in rats by a rating scale modeled after the one reported by Quinton and Halliwell, and Weissman. Groups of five rats were placed in a covered plastic cage measuring approximately 26 cm.×42 cm.×16 cm. […] They were then treated 1, 5 and 24 hrs. later with d-amphetamine sulfate, 5 mg./kg. intraperitoneally (i.p.). […] On the basis of dose-response data after amphetamine it was possible to determine the effective dose of the compound necessary to antagonize or block the characteristic amphetamine behavior of cage movement for fifty percent of the rats tested (ED50). The time of rating chosen coincides with the peak action of amphetamine which is 60-80 min. after treatment with this agent.
Employing the above-described procedure, the following 4a,9b-trans compounds were tested for their ability to block the behavior effects of amphetamine, the results being reported as the ED50 in mg./kg. at the indicated times: [drawing 30]
A. The following results were obtained on the mixture of diastereomers for those compounds wherein R contains a secondary alcohol group and on the single diastereomer of the other 4a, 9b-trans hexahydro-pyrido-indoles.
B. The results of tests in which compounds of the invention reported in Part A, above are compared with the corresponding δ-substituted-5-aryl-1,2,3,4-tetrahydropyrido[4,3-b]indoles of U.S. Pat. No. 4,001,263 are summarized below. For each pair the results obtained on the prior art compound (a) are given first and the results for the compound of the invention (b) are given second. Where indicated the test compound was also administered orally (p.o.) and tests were carried out for 48 hours.
C. […] In each case the compounds are of the formula
The tests were carried out for 72 hours.

[1] = ip, 1 h, i.p., Part B, read-out: ED50, 1 Hr.
[2] = ip, 5 h, i.p., Part B, read-out: ED50, 5 Hrs.
[3] = ip, 24 h, i.p., Part B, read-out: ED50, 24 Hrs.
[4] = sc, 1 h, s.c., Part A, read-out: ED50, 1 Hr.
[5] = sc, 5 h, s.c., Part A, read-out: ED50, 5 Hr.
[6] = sc, 24 h, s.c., Part A, read-out: ED50, 24 Hrs.

Compound	ED50 [1]	ED50 [2]	ED50 [3]	ED50 [4]	ED50 [5]	ED50 [6]	further results
OC(CCCN1CC[C@H]2[C@H](C1)c1ccccc1N2c1ccccc1)c1ccccc1 (relative stereo)	0.032 to 0.1 mg/kg	0.032 to 0.1 mg/kg	0.1 to 0.32 mg/kg	0.032 to 0.1 mg/kg	0.032 to 0.1 mg/kg	0.1 to 0.32 mg/kg	
OC(CCCN1CC[C@H]2[C@H](C1)c1ccccc1N2c1ccccc1)c1ccc(F)cc1 (relative stereo)				0.1 to 0.32 mg/kg	0.1 to 0.32 mg/kg	0.1 to 0.32 mg/kg	
O=C(CCCN1CC[C@H]2[C@H](C1)c1ccccc1N2c1ccccc1)c1ccc(F)cc1 (relative stereo)				~0.32 mg/kg	0.1 to 0.32 mg/kg	~0.32 mg/kg	
OC(CCCN1CC[C@H]2[C@H](C1)c1cc(F)ccc1N2c1ccc(F)cc1)c1ccccc1 (relative stereo)				0.1 to 0.32 mg/kg	0.1 to 0.32 mg/kg	< 0.32 mg/kg	
O=C(CCCN1CC[C@H]2[C@H](C1)c1cc(F)ccc1N2c1ccc(F)cc1)c1ccc(F)cc1 (relative stereo)	< 1 mg/kg	< 1 mg/kg	< 1 mg/kg	< 1 mg/kg	< 1 mg/kg	< 1 mg/kg	
c1ccc(CCCN2CC[C@H]3[C@H](C2)c2ccccc2N3c2ccccc2)cc1 (relative stereo) [R = C6 H5 (CH2)3, reference compound]				3.2 to 10 mg/kg	3.2 to 10 mg/kg	> 10 mg/kg	
c1ccc(CN2CC[C@H]3[C@H](C2)c2ccccc2N3c2ccccc2)cc1 (relative stereo) [R = C6 H5 CH2, dl-trans-2-benzyl-2,3,4,4a,5,9b-hexahydro-5-phenyl-1H-pyrido[4,3-b]indole Hydrochloride, reference compound]				~10 mg/kg	3.2 to 32 mg/kg	> 3.2 mg/kg	
c1ccc(N2c3ccccc3[C@H]3CNCC[C@@H]32)cc1 (relative stereo) [R = H, dl-trans-5-Phenyl-2,3,4,4a,5,9b-hexahydro-1H-pyrido[4,3-b]indole, reference compound]							ED50 (sc, 1 h, read-out: ED50, 1 Hr.): 3.2 to 32 mg/kg; ED50 (sc, 5 h, read-out: ED50, 5 Hr.): > 3.2 mg/kg; ED50 (sc, 24 h, read-out: ED50, 24 Hrs.): > 32 mg/kg
OC(CCCN1CC[C@H]2[C@@H](C1)c1ccccc1N2c1ccccc1)c1ccc(F)cc1 (relative stereo) [corresponding 4a, 9bcis analog, reference compound]				56 mg/kg			
OC(CCCN1CC[C@H]2[C@H](C1)c1cc(F)ccc1N2c1ccc(F)cc1)c1ccc(F)cc1 (relative stereo) [drawing 37, dl-trans-8-Fluoro-5-(p-fluorophenyl)-2-[4-hydroxy-4-(p-fluorophenyl)butyl]-2,3,4,4a,5,9b-hexahydro-1H-pyrido[4,3-b]indole hydrochloride]	0.032 to 0.1 mg/kg	0.032 to 0.1 mg/kg	0.032 to 0.1 mg/kg	0.032 to 0.1 mg/kg	0.032 to 0.1 mg/kg	0.032 to 0.1 mg/kg	ED50 (ip, 48 h, i.p., Part B, read-out: ED50, 48 Hrs.): 0.1 to 0.32 mg/kg; ED50 (po, 1 h, p.o., Part B, read-out: ED50, 1 Hr.): 0.32 to 1 mg/kg; ED50 (po, 5 h, p.o., Part B, read-out: ED50, 5 Hrs.): 0.1 to 0.32 mg/kg; ED50 (po, 24 h, p.o., Part B, read-out: ED50, 24 Hrs.): 0.1 to 0.32 mg/kg
